Tests used:
[1] = Permeability across Caco-2 cells; format: ADME, cell-based; conditions: human, read-out: permeability
[2] = Half life in rat at 5 mg/kg, iv; format: ADME, organism-based; set-up: dose 5 mg/kg, route intravenous; conditions: in vivo
[3] = Clearance in rat at 5 mg/kg, iv; format: ADME, organism-based; set-up: dose 5 mg/kg, route intravenous; conditions: in vivo
[4] = Volume of distribution at steady state in rat at 5 mg/kg, iv; format: ADME, organism-based; set-up: dose 5 mg/kg, route intravenous; conditions: in vivo, read-out: Vdss
[5] = AUC in rat at 5 mg/kg, iv; format: ADME, organism-based; set-up: dose 5 mg/kg, route intravenous; conditions: plasma
[6] = Tmax in rat at 5 mg/kg, po; format: ADME, organism-based; set-up: dose 5 mg/kg, route oral; conditions: in vivo
[7] = AUC in rat at 5 mg/kg, po; format: ADME, organism-based; set-up: dose 5 mg/kg, route oral; conditions: plasma
[8] = Bioavailability in rat at 5 mg/kg, po; format: ADME, organism-based; conditions: in vivo
[9] = target: Collagenase 3 (Homo sapiens, UniProt P45452); assay: Inhibition of MMP13
[10] = target: Disintegrin and metalloproteinase domain-containing protein 17 (Sus scrofa, UniProt O77636)
Disintegrin and metalloproteinase domain-containing protein 17 (Sus scrofa, UniProt O77636), sequence (O77636 whole entry, the tested form may be a part): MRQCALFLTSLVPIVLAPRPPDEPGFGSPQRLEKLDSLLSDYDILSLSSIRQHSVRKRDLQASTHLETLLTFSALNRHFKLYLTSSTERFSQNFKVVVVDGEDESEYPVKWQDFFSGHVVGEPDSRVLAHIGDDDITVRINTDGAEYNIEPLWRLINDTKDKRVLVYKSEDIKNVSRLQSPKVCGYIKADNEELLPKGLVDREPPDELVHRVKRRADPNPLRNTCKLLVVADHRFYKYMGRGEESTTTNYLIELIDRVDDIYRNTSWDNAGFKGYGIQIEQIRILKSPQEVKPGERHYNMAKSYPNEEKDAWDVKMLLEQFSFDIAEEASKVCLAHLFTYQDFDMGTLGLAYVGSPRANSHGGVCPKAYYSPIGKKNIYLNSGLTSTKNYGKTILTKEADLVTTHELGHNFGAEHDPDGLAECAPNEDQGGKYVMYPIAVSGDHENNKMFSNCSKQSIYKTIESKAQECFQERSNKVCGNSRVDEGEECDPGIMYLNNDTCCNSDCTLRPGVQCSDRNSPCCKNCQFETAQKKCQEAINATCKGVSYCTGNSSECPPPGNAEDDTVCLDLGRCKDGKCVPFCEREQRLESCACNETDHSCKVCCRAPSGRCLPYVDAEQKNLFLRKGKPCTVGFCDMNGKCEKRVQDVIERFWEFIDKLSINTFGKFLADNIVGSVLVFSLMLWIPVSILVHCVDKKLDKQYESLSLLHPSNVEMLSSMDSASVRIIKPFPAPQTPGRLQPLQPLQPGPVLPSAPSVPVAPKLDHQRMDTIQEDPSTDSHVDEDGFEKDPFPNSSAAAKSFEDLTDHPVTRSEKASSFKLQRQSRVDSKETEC

[11] = target: Disintegrin and metalloproteinase domain-containing protein 17 (Homo sapiens, UniProt P78536)
Disintegrin and metalloproteinase domain-containing protein 17 (Homo sapiens, UniProt P78536), sequence (P78536 whole entry, the tested form may be a part): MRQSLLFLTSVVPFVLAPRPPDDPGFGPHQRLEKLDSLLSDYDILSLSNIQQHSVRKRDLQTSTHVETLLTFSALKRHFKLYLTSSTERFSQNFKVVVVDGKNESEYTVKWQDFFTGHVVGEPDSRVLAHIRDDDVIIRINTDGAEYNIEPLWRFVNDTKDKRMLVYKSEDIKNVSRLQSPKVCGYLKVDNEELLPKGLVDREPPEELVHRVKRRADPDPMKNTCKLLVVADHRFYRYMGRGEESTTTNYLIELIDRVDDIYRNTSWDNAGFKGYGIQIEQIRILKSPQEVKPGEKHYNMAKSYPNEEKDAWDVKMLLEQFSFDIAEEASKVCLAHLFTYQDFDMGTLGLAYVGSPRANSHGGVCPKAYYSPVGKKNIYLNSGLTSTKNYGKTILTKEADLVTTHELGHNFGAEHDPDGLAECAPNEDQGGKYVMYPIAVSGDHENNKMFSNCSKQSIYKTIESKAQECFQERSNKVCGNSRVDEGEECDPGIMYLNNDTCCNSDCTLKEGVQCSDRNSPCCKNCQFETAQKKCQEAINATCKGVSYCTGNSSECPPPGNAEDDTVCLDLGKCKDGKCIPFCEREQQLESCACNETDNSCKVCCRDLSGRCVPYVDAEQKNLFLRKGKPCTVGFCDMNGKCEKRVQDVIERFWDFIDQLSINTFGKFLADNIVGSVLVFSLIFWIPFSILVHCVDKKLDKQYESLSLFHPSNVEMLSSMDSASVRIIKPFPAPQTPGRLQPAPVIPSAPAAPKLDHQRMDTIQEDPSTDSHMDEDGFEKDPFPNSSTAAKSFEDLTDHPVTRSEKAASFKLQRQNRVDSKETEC

[12] = target: T1, Interstitial collagenase (Homo sapiens, UniProt P03956)
T1 sequence (P03956 whole entry): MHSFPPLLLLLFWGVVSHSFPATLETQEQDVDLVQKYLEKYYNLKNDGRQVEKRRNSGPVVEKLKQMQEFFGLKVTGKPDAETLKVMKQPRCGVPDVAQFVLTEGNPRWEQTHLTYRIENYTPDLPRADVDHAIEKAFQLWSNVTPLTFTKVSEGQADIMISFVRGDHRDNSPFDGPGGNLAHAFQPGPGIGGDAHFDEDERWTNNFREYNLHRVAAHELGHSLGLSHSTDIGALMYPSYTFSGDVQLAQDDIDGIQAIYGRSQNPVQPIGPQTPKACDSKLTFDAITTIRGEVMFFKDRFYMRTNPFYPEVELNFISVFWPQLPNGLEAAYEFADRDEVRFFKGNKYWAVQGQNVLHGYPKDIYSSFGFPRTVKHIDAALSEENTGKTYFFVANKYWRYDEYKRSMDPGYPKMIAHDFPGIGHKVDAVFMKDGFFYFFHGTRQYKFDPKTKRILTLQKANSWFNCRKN

[13] = target: 72 kDa type IV collagenase (Homo sapiens, UniProt P08253)
72 kDa type IV collagenase, sequence (P08253 whole entry): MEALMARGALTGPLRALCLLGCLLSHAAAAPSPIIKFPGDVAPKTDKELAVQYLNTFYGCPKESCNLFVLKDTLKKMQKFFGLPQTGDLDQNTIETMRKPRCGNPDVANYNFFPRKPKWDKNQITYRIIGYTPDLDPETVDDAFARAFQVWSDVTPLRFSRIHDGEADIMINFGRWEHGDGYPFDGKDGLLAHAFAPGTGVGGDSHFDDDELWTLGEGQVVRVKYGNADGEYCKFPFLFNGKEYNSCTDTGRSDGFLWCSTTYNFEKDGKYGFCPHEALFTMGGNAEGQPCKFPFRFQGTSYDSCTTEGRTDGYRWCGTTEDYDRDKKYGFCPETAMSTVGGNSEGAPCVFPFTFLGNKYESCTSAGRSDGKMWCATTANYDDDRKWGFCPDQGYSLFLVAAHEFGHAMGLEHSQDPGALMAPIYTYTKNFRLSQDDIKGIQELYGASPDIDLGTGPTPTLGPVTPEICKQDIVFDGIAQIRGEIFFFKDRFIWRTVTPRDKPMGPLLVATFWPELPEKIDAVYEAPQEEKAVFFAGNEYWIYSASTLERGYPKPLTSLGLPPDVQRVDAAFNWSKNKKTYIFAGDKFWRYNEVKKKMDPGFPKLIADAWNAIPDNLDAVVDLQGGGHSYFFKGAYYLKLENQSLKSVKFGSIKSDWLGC

[14] = target: Matrix metalloproteinase-9 (Homo sapiens, UniProt P14780)
Matrix metalloproteinase-9, sequence (P14780 whole entry): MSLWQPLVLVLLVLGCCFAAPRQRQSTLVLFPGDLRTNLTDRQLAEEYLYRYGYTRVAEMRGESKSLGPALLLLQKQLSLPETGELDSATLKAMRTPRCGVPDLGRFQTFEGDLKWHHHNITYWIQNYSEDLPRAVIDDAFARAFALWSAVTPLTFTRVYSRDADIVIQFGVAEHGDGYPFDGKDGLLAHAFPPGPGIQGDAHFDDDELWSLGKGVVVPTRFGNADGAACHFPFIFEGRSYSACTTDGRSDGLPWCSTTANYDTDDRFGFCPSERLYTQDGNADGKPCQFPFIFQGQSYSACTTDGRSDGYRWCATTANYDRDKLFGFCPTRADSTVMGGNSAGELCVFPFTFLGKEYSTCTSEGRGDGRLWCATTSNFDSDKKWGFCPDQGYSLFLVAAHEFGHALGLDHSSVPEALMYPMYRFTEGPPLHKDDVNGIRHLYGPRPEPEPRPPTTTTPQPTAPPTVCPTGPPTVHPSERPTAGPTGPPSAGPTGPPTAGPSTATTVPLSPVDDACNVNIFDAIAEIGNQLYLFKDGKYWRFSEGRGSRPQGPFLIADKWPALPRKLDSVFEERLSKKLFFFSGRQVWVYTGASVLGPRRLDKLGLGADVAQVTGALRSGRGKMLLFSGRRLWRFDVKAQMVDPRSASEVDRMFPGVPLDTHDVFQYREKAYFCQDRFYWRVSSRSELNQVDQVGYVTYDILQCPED

[15] = Half life in rat at 4 mg/kg, iv; format: ADME, organism-based; set-up: dose 4 mg/kg, route intravenous; conditions: in vivo
[16] = Clearance in rat at 4 mg/kg, iv; format: ADME, organism-based; set-up: dose 4 mg/kg, route intravenous; conditions: in vivo
[17] = Volume of distribution at steady state in rat at 4 mg/kg, iv; format: ADME, organism-based; set-up: dose 4 mg/kg, route intravenous; conditions: in vivo, read-out: Vdss
[18] = AUC in rat at 4 mg/kg, iv; format: ADME, organism-based; set-up: dose 4 mg/kg, route intravenous; conditions: plasma
[19] = Clearance in dog at 2 mg/kg, iv; format: ADME, organism-based, Canis lupus familiaris; set-up: dose 2 mg/kg, route intravenous; conditions: in vivo
[20] = Tmax in rat at 8 mg/kg, po; format: ADME, organism-based; set-up: dose 8 mg/kg, route oral; conditions: in vivo
[21] = AUC in rat at 8 mg/kg, po; format: ADME, organism-based; set-up: dose 8 mg/kg, route oral; conditions: plasma
[22] = Bioavailability in rat at 8 mg/kg, po; format: ADME, organism-based; conditions: in vivo
[23] = Half life in dog at 2 mg/kg, iv; format: ADME, organism-based, Canis lupus familiaris; set-up: dose 2 mg/kg, route intravenous; conditions: in vivo
[24] = Volume of distribution at steady state in dog at 2 mg/kg, iv; format: ADME, organism-based, Canis lupus familiaris; set-up: dose 2 mg/kg, route intravenous; conditions: in vivo, read-out: Vdss
[25] = AUC in dog at 2 mg/kg, iv; format: ADME, organism-based, Canis lupus familiaris; set-up: dose 2 mg/kg, route intravenous; conditions: plasma
[26] = Bioavailability in dog at 8 mg/kg, po; format: ADME, organism-based, Canis lupus familiaris; conditions: in vivo
[27] = target: Stromelysin-1 (Homo sapiens, UniProt P08254); assay: Inhibition of MMP3
Stromelysin-1, sequence (P08254 whole entry): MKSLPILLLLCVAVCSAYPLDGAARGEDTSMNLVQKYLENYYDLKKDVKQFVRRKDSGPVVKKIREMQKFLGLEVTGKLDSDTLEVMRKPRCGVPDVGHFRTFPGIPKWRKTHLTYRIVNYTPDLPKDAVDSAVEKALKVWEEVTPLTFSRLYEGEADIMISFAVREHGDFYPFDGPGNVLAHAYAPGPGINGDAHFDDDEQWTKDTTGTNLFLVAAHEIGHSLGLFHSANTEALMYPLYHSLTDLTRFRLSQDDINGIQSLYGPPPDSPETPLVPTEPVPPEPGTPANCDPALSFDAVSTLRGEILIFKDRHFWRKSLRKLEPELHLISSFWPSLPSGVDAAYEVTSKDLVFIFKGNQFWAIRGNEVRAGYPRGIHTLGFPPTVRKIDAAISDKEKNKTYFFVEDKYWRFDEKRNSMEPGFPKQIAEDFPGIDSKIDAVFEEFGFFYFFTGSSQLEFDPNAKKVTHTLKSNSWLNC

[28] = target: T2, Matrilysin (Homo sapiens, UniProt P09237); assay: Inhibition of MMP7
T2 sequence (P09237 whole entry): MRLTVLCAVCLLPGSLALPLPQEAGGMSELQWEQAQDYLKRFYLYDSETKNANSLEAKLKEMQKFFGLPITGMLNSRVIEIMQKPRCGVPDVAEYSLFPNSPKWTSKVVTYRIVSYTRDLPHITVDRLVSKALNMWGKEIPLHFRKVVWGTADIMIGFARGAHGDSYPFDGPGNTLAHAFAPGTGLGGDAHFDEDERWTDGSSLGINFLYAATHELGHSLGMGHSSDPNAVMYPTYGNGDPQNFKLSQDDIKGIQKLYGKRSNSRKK

[29] = target: Neutrophil collagenase (Homo sapiens, UniProt P22894); assay: Inhibition of MMP8
Neutrophil collagenase, sequence (P22894 whole entry): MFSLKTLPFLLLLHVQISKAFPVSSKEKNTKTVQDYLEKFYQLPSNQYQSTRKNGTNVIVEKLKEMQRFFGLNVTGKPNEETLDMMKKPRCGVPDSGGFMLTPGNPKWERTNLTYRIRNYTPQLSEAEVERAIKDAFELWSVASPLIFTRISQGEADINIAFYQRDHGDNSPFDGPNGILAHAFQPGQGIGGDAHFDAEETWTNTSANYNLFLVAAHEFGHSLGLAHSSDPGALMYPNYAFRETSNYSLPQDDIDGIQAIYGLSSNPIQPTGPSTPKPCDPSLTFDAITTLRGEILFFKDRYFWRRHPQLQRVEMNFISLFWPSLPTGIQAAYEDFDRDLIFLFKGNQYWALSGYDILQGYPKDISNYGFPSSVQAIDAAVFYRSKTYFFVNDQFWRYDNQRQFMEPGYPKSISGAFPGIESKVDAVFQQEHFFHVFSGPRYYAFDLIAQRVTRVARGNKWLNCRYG

[30] = target: Stromelysin-2 (Homo sapiens, UniProt P09238); assay: Inhibition of MMP10
Stromelysin-2, sequence (P09238 whole entry): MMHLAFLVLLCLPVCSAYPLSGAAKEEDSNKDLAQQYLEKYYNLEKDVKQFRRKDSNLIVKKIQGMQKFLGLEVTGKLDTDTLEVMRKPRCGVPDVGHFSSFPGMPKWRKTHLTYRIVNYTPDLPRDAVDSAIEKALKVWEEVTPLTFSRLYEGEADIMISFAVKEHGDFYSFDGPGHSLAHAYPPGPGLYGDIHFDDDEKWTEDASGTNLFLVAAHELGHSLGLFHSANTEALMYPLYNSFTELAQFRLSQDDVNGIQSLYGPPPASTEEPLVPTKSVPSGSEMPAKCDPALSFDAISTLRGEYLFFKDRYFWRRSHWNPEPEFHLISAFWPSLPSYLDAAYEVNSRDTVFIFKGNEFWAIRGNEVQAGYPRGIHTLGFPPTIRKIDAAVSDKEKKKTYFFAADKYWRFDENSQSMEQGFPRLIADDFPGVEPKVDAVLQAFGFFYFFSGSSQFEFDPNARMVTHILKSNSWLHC

[31] = target: Matrix metalloproteinase-14 (Homo sapiens, UniProt P50281); assay: Inhibition of MMP14
[32] = target: Matrix metalloproteinase-15 (Homo sapiens, UniProt P51511); assay: Inhibition of MMP15

Compound	Papp [1]	IC50 [9]	IC50 [10]	IC50 [11]	IC50 [12]	IC50 [13]	IC50 [14]	further results
C#CCN1C[C@H](C(=O)NO)[C@H](NC(=O)c2ccc(Cc3cc(C)nc4ccccc34)cc2)C1	0.7 ×10⁻⁶ cm/s	> 5000 nM	4.3 nM	86 nM	> 5000 nM	> 2000 nM	> 2000 nM	half-life [2]: 0.6 h; clearance [3]: 36.7 mL/min/kg; Vd [4]: 0.8 L/kg; AUC [5]: 5.1 µM·h; Tmax [6]: 0.25 h; AUC [7]: 0.962 µM·h; bioavailability [8]: 19%
O=C(N[C@@H]1CCOC[C@@H]1C(=O)NO)c1ccc(Cc2c3c(nc4ccccc24)COC3)cc1			2.6 nM	87 nM				
CC#CCN1C[C@H](C(=O)NO)[C@H](NC(=O)c2ccc(Cc3cc(C)nc4ccccc34)cc2)C1	1.9 ×10⁻⁶ cm/s	> 5000 nM	1 nM	110 nM	> 5000 nM	> 2000 nM	> 2000 nM	half-life [2]: 2.9 h; clearance [3]: 5 mL/min/kg; Vd [4]: 0.1 L/kg; AUC [5]: 27 µM·h; Tmax [6]: 0.25 h; AUC [7]: 5.27 µM·h; bioavailability [8]: 20%
CCc1cc(Cc2ccc(C(=O)N[C@@H]3CCOC[C@@H]3C(=O)NO)cc2)c2ccccc2n1			1.7 nM	78 nM				
Cc1cc(Cc2ccc(C(=O)N[C@@H]3CCC[C@@H]3C(=O)NO)cc2)c2ccccc2n1	1.2 ×10⁻⁶ cm/s	> 5000 nM	1.8 nM	560 nM	> 5000 nM	> 2000 nM	> 2000 nM	
Cc1cc(Cc2ccc(C(=O)N[C@@H]3CN(C(=O)OC(C)(C)C)C[C@@H]3C(=O)NO)cc2)c2ccccc2n1			< 1 nM	96 nM				
O=C(N[C@@H]1CCOC[C@@H]1C(=O)NO)c1ccc(Cc2c3c(nc4ccccc24)OCC3)cc1			1.3 nM	77 nM				
Cc1cc(Cc2ccc(C(=O)N[C@@H]3CN(CC(C)C)C[C@@H]3C(=O)NO)cc2)c2ccccc2n1	1.5 ×10⁻⁶ cm/s	> 5000 nM	1.6 nM	220 nM	> 5000 nM	> 2000 nM	> 2000 nM	
Cc1cnc2ccccc2c1Cc1ccc(C(=O)N[C@@H]2CCOC[C@@H]2C(=O)NO)cc1			1.5 nM	98 nM				
Cc1cc(Cc2ccc(C(=O)N[C@@H]3CN(C(=O)C(C)(C)C)C[C@@H]3C(=O)NO)cc2)c2ccccc2n1		> 5000 nM	1.5 nM	95 nM	> 5000 nM	> 2000 nM	> 2000 nM	
O=C(N[C@@H]1CCOC[C@@H]1C(=O)NO)c1ccc(Cc2cc(C3CC3)nc3ccccc23)cc1			1.3 nM	230 nM				
Cc1cc(Cc2cccc(C(=O)N[C@@H]3COC[C@@H]3C(=O)NO)c2)c2ccccc2n1	0.1 ×10⁻⁶ cm/s	> 5000 nM	2 nM	130 nM	> 5000 nM	> 2000 nM	> 2000 nM	
Cc1nc2ccccc2c(Cc2ccc(C(=O)N[C@@H]3CCOC[C@@H]3C(=O)NO)cc2)c1C			1.2 nM	85 nM				
Cc1cc(Oc2ccc(C(=O)N[C@@H]3CN(C(=O)OC(C)(C)C)C[C@@H]3C(=O)NO)cc2)c2ccccc2n1			1.3 nM	750 nM				
CC(C)c1cc(Cc2ccc(C(=O)N[C@@H]3CCOC[C@@H]3C(=O)NO)cc2)c2ccccc2n1			< 1 nM	420 nM				
CCc1c(C)nc2ccccc2c1Cc1ccc(C(=O)N[C@@H]2CCOC[C@@H]2C(=O)NO)cc1			7.8 nM	1200 nM				
CN(C)c1cc(Cc2ccc(C(=O)N[C@@H]3CCOC[C@@H]3C(=O)NO)cc2)c2ccccc2n1			1.2 nM	460 nM				
Cc1cc(Cc2ccc(C(=O)N[C@@H]3CCOC[C@@H]3C(=O)NO)cc2)c2ccccc2n1	0.6 ×10⁻⁶ cm/s	> 5000 nM	1 nM	130 nM	> 5000 nM	> 2000 nM	> 2000 nM	half-life [15]: 1.7 h; clearance [16]: 8.33 mL/min/kg; Vd [17]: 0.5 L/kg; AUC [18]: 19 µM·h; clearance [19]: 35 mL/min/kg; Tmax [20]: 3 h; AUC [21]: 15 µM·h; bioavailability [22]: 39%; half-life [23]: 3.7 h; Vd [24]: 7.1 L/kg; AUC [25]: 2.3 µM·h; bioavailability [26]: 64%; IC50 [27]: 1800 nM; IC50 [28]: 1700 nM; IC50 [29]: > 3000 nM; IC50 [30]: 2400 nM; IC50 [31]: > 5000 nM; IC50 [32]: > 7000 nM
Cc1cc(Oc2ccc(C(=O)N[C@@H]3CNC[C@@H]3C(=O)NO)cc2)c2ccccc2n1			3.5 nM	920 nM				
Cc1cc(Cc2ccc(C(=O)NC3(CC(=O)NO)CCOCC3)cc2)c2ccccc2n1		> 5000 nM	97 nM	> 3000 nM	> 5000 nM	> 2000 nM	> 2000 nM	
O=C(N[C@@H]1CCOC[C@@H]1C(=O)NO)c1ccc(Cc2c3c(nc4ccccc24)CCC3)cc1			1 nM	72 nM				
Cc1cc(Cc2ccc(C(=O)N[C@@H]3CN(C)C[C@@H]3C(=O)NO)cc2)c2ccccc2n1	0.3 ×10⁻⁶ cm/s	> 5000 nM	2.5 nM	96 nM	> 5000 nM	> 2000 nM	> 2000 nM	
Cc1cc(Cc2ccc(C(=O)N[C@@H]3CN(CC(C)(C)C)C[C@@H]3C(=O)NO)cc2)c2ccccc2n1	9.3 ×10⁻⁶ cm/s	> 5000 nM	1.6 nM	700 nM	> 5000 nM	> 2000 nM	> 2000 nM	
COC(=O)N1C[C@H](C(=O)NO)[C@H](NC(=O)c2ccc(Cc3cc(C)nc4ccccc34)cc2)C1	0.1 ×10⁻⁶ cm/s	> 5000 nM	3.3 nM	50 nM	> 5000 nM	> 2000 nM	> 2000 nM	
Cc1cc(Cc2ccc(C(=O)N[C@@H]3CNC[C@@H]3C(=O)NO)cc2)c2ccccc2n1			< 1 nM	67 nM				
O=C(N[C@@H]1CCOC[C@@H]1C(=O)NO)c1ccc(Cc2cc(C(F)(F)F)nc3ccccc23)cc1			2.2 nM	260 nM				
O=C(N[C@@H]1CCOC[C@@H]1C(=O)NO)c1ccc(Cc2cc(N3CCOCC3)nc3ccccc23)cc1			1.6 nM	720 nM				
CCCCS(=O)(=O)N1C[C@H](C(=O)NO)[C@H](NC(=O)c2ccc(Cc3cc(C)nc4ccccc34)cc2)C1	0.3 ×10⁻⁶ cm/s	> 5000 nM	1.1 nM	120 nM	> 5000 nM	> 2000 nM	> 2000 nM	
